The values below come from patent US4605614A, “Method for measuring plasmin” (Nitto Boseki Co., Ltd., priority 1981, dated 1986).

Test [1] deals with plasmin (pig) (Sus scrofa, UniProt P06867). Put plainly: Km, Vmax and Vmax/Km of substrates for plasmin (pig). In kind it is biochemical, Porcine (pig). The note with it: for Vmax (× 10^-7): TABLE 2, CHA substrates, plasmin (pig), 2,6-xylenol 615 nm; for Vmax (× 10^7): 405 nm.
From the text: The substrates produced by the above examples were used in the measurement of plasmin as follows: The principle of this measurement comprises quantitatively analyzing the decomposition product p-nitroaniline or 3-carboxy-4-hydroxyaniline produced by the enzymatic hydrolysis, by measuring the absorbance (O.D.) directly at 405 nm in the case of p-nitroaniline and, in the case of the 3-carboxy-4-hydroxyaniline at 615 nm after condensing it with 2,6-xylenol in the presence of an oxidant to develop a color.
For the measurements of these constants, the following method is adopted:
The enzyme and the substrate are mixed in a buffer solution and subjected to the hydrolysis for 30 seconds. The concentration of the substrate [S] is changed and the enzyme concentration is maintained constant. By measuring the absorbance (O.D.), the initial velocity of the hydrolysis can be determined. Where 1/V is plotted as a function of 1/[S], there is obtained a Lineweaver and Burk's linea from which graph the Vmax and Km can be determined.
The target in test [2] is Thrombin (TH) (Bos taurus, UniProt P00735). In kind it is biochemical, Cow. Conditions: pH 8.4, 37° C., 10 minutes, 1.0 NIH/ml; for Selectivity TH, absorbance (O.D.) at 645 nm: TABLE 4, CHA substrates, So = 0.54; for Selectivity TH, absorbance (O.D.) at 405 nm: TABLE 3, PNA substrates, So = 0.54 mmole/l.
Chain of Thrombin (TH) (P00735 44-625): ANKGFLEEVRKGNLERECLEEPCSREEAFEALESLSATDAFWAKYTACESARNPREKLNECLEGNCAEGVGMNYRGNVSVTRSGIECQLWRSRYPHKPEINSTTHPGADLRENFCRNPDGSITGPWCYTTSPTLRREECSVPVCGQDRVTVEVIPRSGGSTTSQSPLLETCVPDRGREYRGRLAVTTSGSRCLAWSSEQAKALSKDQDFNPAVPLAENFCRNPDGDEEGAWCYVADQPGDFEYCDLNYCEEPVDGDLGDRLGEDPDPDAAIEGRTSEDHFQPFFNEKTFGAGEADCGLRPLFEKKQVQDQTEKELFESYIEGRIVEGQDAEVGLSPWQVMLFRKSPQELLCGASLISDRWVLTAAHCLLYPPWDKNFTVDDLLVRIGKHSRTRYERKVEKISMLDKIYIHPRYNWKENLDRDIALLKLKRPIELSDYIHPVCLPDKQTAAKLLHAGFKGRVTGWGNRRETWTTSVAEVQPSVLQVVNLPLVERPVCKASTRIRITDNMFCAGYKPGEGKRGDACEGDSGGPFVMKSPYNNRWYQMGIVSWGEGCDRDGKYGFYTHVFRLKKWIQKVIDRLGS
Method: (§1) The specificities of the novelly synthesized substrates were tested by reacting them with various enzymes respectively.
(§2) (1) Substrate solution concentration: 35 mmole/liter H2 O
(§3) (2) Buffer: Tris-hydrochloric acid buffer 50 mmole/l, NaCl 150 mmole/l (0.875%) was employed, and the pH for reaction was as follows depending on the enzyme.
(§4) 2,6-Xylenol 7.0 mmole+NaIO4 1.5 mmole/0.2N KOH
(§5) 0.5 ml of the buffer solution and 0.05 ml of the enzyme reagent were taken into a silicon-treated hard glass test tube or a plastic test tube, and preheated in a constant temperature bath at 37° C. for 5 minutes. Thereafter, 0.1 ml of the substrate solution was added to effect the enzymatic reaction at 37° C. for 10 minutes. Exactly after 10 minutes, 2.5 ml of the reaction terminating solution or the terminating and color developing reagent solution was added to terminate the enzymatic reaction, and after allowing to stand at 25° C. for 10 minutes, the absorbance at 405 nm or 645 nm was measured, in which [drawing 49]
Test [3] addresses Plasmin (PL) (Sus scrofa, UniProt P06867). It counts as biochemical, Pig. The note with it: pH 7.4, 37° C., 10 minutes, 0.32 CU/ml; for Selectivity PL, absorbance (O.D.) at 645 nm: TABLE 4, CHA substrates, So = 0.54; for Selectivity PL, absorbance (O.D.) at 405 nm: TABLE 3, PNA substrates, So = 0.54 mmole/l.
Method: as §2, §3
Plasmin Pig Sigma (U.S.A.)
as §5
In test [4] the target is Kallikrein (KL) (Sus scrofa, UniProt P00752). It counts as biochemical, Pig. The note with it: pH 7.9, 37° C., 10 minutes, 1.0 BAEE-U/ml; for Selectivity KL, absorbance (O.D.) at 645 nm: TABLE 4, CHA substrates, So = 0.54; for Selectivity KL, absorbance (O.D.) at 405 nm: TABLE 3, PNA substrates, So = 0.54 mmole/l.
Chain of Kallikrein (KL) (P00752 8-246): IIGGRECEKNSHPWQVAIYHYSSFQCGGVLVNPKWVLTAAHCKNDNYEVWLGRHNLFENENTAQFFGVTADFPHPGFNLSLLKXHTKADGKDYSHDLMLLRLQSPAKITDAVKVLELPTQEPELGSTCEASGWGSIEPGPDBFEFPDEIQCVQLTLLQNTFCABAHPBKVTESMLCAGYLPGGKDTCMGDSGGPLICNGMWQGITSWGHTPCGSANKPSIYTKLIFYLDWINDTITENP
Method: as §1, §2, §3, §4, §5
The target of test [5] is Factor-Xa (FXa) (Bos taurus, UniProt P00743). In kind it is biochemical, Cow. The note with it: pH 8.4, 37° C., 10 minutes, 0.4 U/ml; for Selectivity FXa, absorbance (O.D.) at 645 nm: TABLE 4, CHA substrates, So = 0.54; for Selectivity FXa, absorbance (O.D.) at 405 nm: TABLE 3, PNA substrates, So = 0.54 mmole/l.
Chain of Factor-Xa (FXa) (P00743 41-180): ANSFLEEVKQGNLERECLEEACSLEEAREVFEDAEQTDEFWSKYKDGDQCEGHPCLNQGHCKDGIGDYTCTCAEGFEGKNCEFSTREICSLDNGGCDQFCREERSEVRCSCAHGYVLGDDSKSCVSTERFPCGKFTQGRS
Chain of Factor-Xa (FXa) (P00743 234-492): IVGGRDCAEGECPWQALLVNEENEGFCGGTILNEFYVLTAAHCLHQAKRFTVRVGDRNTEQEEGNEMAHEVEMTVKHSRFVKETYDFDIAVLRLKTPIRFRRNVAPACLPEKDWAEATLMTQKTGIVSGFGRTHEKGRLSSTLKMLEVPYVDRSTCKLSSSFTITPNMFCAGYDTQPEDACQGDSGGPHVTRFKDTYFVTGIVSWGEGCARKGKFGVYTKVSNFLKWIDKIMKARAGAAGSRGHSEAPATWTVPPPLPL
Method: as §1, §2, §3, §4, §5
Test [6] addresses Urokinase (UK) (Homo sapiens, UniProt P00749). It counts as biochemical. Conditions: pH 8.2, 37° C., 10 minutes, 1000 IU/ml; for Selectivity UK, absorbance (O.D.) at 645 nm: TABLE 4, CHA substrates, So = 0.54; for Selectivity UK, absorbance (O.D.) at 405 nm: TABLE 3, PNA substrates, So = 0.54 mmole/l.
Method: as §1, §2, §3, §4, §5
Setting [7] is: TABLE 2, V/Km of each sample divided by that of S2251 (so in the source).
Setting [8] is: TABLE 1, PNA substrates, plasmin (pig).
[9] abbreviates: TABLE 1, V/Km of each sample divided by that of S2251.

SMILES strings stand for the structures. Where a SMILES comes first, the peptide text is derived from it. [ ]: non-standard residue; d: D form. The star is where a group is joined. pNA = O=[N+]([O-])c1ccc(N*)cc1; Tos = Cc1ccc(S(=O)(=O)*)cc1

Chain of plasmin (pig) (P06867 97-809): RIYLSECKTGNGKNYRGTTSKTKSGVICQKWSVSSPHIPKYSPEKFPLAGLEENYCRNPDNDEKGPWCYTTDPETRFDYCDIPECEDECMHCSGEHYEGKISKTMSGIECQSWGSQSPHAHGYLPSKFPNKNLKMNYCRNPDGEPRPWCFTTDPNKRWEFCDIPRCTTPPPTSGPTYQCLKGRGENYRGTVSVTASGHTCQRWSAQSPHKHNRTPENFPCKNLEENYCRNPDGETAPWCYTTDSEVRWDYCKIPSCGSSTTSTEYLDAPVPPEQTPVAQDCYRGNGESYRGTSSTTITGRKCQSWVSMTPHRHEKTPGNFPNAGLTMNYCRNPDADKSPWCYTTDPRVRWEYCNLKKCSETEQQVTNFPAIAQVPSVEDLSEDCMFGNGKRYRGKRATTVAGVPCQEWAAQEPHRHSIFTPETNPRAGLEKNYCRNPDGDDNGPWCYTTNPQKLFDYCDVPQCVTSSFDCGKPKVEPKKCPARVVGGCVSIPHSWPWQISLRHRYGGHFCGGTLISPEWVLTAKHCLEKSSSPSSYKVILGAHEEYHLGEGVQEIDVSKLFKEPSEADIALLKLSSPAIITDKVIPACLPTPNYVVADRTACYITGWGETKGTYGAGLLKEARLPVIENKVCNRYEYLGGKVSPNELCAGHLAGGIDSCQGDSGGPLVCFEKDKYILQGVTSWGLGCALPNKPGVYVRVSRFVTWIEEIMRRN
Chain of Plasmin (PL) (P06867 97-809): as above

For the compound `NCCCC[C@H](NC(=O)[C@H](Cc1ccccc1)NC(=O)[C@H](N)CCC(=O)NCCc1ccccc1)C(=O)Nc1ccc(O)c(C(=O)O)c1` [NPC-23], the “Vmax (× 10^-7)” value in test [1] is 18.963 × 10^-7. Further, the Relative ratio in test [1] (setting [7]) is listed as 43.045. Further, the “Selectivity TH, absorbance (O.D.) at 645 nm” value (shortened to “Selectivity TH … at 645 nm”) in test [2] is recorded as 0 O.D. Further, in test [3], the “Selectivity PL, absorbance (O.D.) at 645 nm” value (from here on “Selectivity PL … at 645 nm”) turned out to be 0.223 O.D. In test [4], the “Selectivity KL, absorbance (O.D.) at 645 nm” value (“Selectivity KL … at 645 nm” for short) came out at 0.009 O.D. Also, the “Selectivity FXa, absorbance (O.D.) at 645 nm” value (“Selectivity FXa … at 645 nm” for short) in test [5] was found to be 0.005 O.D. For the same compound, in test [6], the “Selectivity UK, absorbance (O.D.) at 645 nm” value (from here on “Selectivity UK … at 645 nm”) is 0.004 O.D.
`Cc1ccc(CCNC(=O)CC[C@@H](N)C(=O)N[C@@H](Cc2ccccc2)C(=O)N[C@@H](CCCCN)C(=O)Nc2ccc(O)c(C(=O)O)c2)cc1` [NPC-24]: the “Vmax (× 10^-7)” value in test [1] was 21.637 × 10^-7. Further, in test [1] (setting [7]), the Relative ratio is reported as 46.748. Besides, the “Selectivity TH … at 645 nm” value in test [2] stood at 0 O.D. The “Selectivity PL … at 645 nm” value in test [3] came out at 0.279 O.D. For the same compound, the “Selectivity KL … at 645 nm” value in test [4] came out at 0.009 O.D. Further, the “Selectivity FXa … at 645 nm” value in test [5] is 0.005 O.D. The “Selectivity UK … at 645 nm” value in test [6] was found to be 0.004 O.D.
Consider `CS(=O)(=O)NCCCC[C@@H](N)C(=O)N[C@@H](Cc1ccccc1)C(=O)N[C@@H](CCCCN)C(=O)Nc1ccc(O)c(C(=O)O)c1` [NPC-25], for which the “Vmax (× 10^-7)” value in test [1] is reported as 15.803 × 10^-7. In addition, the Relative ratio in test [1] (setting [7]) came to 43.613. For the same compound, the “Selectivity TH … at 645 nm” value in test [2] amounted to 0 O.D. Besides, the “Selectivity PL … at 645 nm” value in test [3] came out at 0.185 O.D. Further, the “Selectivity KL … at 645 nm” value in test [4] came to 0.006 O.D. The “Selectivity FXa … at 645 nm” value in test [5] came to 0 O.D. For the same compound, in test [6], the “Selectivity UK … at 645 nm” value was 0 O.D.
As to `Cc1ccc(S(=O)(=O)NCCCC[C@@H](N)C(=O)N[C@@H](CC(C)C)C(=O)N[C@@H](CCCCN)C(=O)Nc2ccc([N+](=O)[O-])cc2)cc1` [NPN-1, HD-Lys(Tos)LeuLysPNA.2HBr] (H-[dK](Tos)-Leu-Lys-pNA), the “Vmax (× 10^7)” value in test [1] (setting [8]) is listed as 63.600 × 10^7. Besides, the Relative ratio in test [1] (setting [9]) is 2.937. The “Selectivity TH, absorbance (O.D.) at 405 nm” value (“Selectivity TH … at 405 nm” for short) in test [2] turned out to be 0 O.D. The “Selectivity PL, absorbance (O.D.) at 405 nm” value (shortened to “Selectivity PL … at 405 nm”) in test [3] is 0.457 O.D. In addition, the “Selectivity KL, absorbance (O.D.) at 405 nm” value (“Selectivity KL … at 405 nm” below) in test [4] came out at 0.006 O.D. Also, the “Selectivity FXa, absorbance (O.D.) at 405 nm” value (from here on “Selectivity FXa … at 405 nm”) in test [5] stood at 0.003 O.D. In addition, the “Selectivity UK, absorbance (O.D.) at 405 nm” value (“Selectivity UK … at 405 nm” below) in test [6] was determined as 0.001 O.D.
In the case of `Cc1ccc(S(=O)(=O)NCCCC[C@@H](N)C(=O)N[C@@H](Cc2ccccc2)C(=O)N[C@@H](CCCCN)C(=O)Nc2ccc([N+](=O)[O-])cc2)cc1` [NPN-2, H-D-Lys(ToS)-Phe-Lys PNA.2HBr] (H-[dK](Tos)-Phe-Lys-pNA), in test [1] (Porcine Plasmin, comparison table in description), the “Vmax (× 10^-6) [mole/min/Cu]” value is listed as 4.8 × 10^-6 mole/min/Cu. In test [1] (setting [8]), the “V/Km (× 10^-3)” value is on record as 303.595 × 10^-3 and the “Vmax (× 10^7)” value was 47.968 × 10^7. Besides, in test [1] (setting [9]), the Relative ratio is given as 26.517. Besides, the “Selectivity TH … at 405 nm” value in test [2] is on record as 0 O.D. In test [3], the “Selectivity PL … at 405 nm” value turned out to be 0.383 O.D. The “Selectivity KL … at 405 nm” value in test [4] came out at 0.004 O.D. Moreover, in test [5], the “Selectivity FXa … at 405 nm” value amounted to 0.003 O.D. In test [6], the “Selectivity UK … at 405 nm” value stood at 0.001 O.D.
As to `NCCCC[C@H](NC(=O)[C@H](Cc1ccccc1)NC(=O)[C@H](N)CCC(=O)OC1CCCCC1)C(=O)Nc1ccc([N+](=O)[O-])cc1` [NPN-3, HD-Glu(CHN)PheLysPNA.2HBr] (HELM PEPTIDE1{[dE].F.K.[O=[N+]([O-])c1ccc(N[*:1])cc1]}|CHEM1{[C1CCC(O[*:1])CC1]}$PEPTIDE1,CHEM1,1:R3-1:R1$$$V2.0), in test [1] (setting [8]), the “Vmax (× 10^7)” value is 65.287 × 10^7. Further, in test [1] (setting [9]), the Relative ratio stood at 17.726. The “Selectivity TH … at 405 nm” value in test [2] is given as 0 O.D. Moreover, in test [3], the “Selectivity PL … at 405 nm” value turned out to be 0.466 O.D. Besides, the “Selectivity KL … at 405 nm” value in test [4] was determined as 0.009 O.D. Moreover, in test [5], the “Selectivity FXa … at 405 nm” value came out at 0.003 O.D. Further, in test [6], the “Selectivity UK … at 405 nm” value stood at 0.001 O.D.
Take `NCCCC[C@H](NC(=O)[C@H](Cc1ccccc1)NC(=O)[C@H](N)CCC(=O)NCCc1ccccc1)C(=O)Nc1ccc([N+](=O)[O-])cc1` [NPN-4] (HELM PEPTIDE1{[dE].F.K.[O=[N+]([O-])c1ccc(N[*:1])cc1]}|CHEM1{[c1ccc(CCN[*:1])cc1]}$PEPTIDE1,CHEM1,1:R3-1:R1$$$V2.0): the “Vmax (× 10^7)” value in test [1] (setting [8]) is 23.895 × 10^7. Besides, the Relative ratio in test [1] (setting [9]) worked out at 7.481. Besides, the “Selectivity TH … at 405 nm” value in test [2] is 0.001 O.D. Further, the “Selectivity PL … at 405 nm” value in test [3] is 0.330 O.D. In test [4], the “Selectivity KL … at 405 nm” value is recorded as 0.010 O.D. Also, the “Selectivity FXa … at 405 nm” value in test [5] is given as 0.006 O.D. In addition, the “Selectivity UK … at 405 nm” value in test [6] is given as 0.002 O.D.
